{"source": "patent US20210222225A1", "about": "“Medium for Disk Diffusion Method to Evaluate Antibiotic Sensitivity” (priority 2018, published 2021)", "key": {"[1]": {"tested_on": "ABA, KPN and PAE strains", "assay": "Growth of strain on guanidine hydrochloride-containing medium", "format": "cell-based", "conditions": "guanidine hydrochloride 5 to 50 μg/ml; agar 5.1 g/L", "quoted_text": "A concentration of agar particles (BD Diagnostic, Sparks, Md., USA) in Mueller-Hinton broth medium (BD Diagnostic) was adjusted to 5.1 g/L, which is 30% of 17 g/L, and guanidine hydrochloride was added to a concentration of 500 μg/ml, 50 μg/ml, or 5 μg/ml. Then, solidification was performed. On a surface of each medium thus prepared was evenly inoculated each of colistin-susceptible (S) or -resistant (R) Acinetobacter baumannii (ABA) strain, colistin-susceptible (S) or -resistant (R) Klebsiella pnemoniae (KPN) strain, and colistin-susceptible (S) or -resistant (R) Pseudomonas aeruginosa (PAE) strain, and a colistin disk was placed thereon."}, "[2]": {"tested_on": "Colistin-resistant Acinetobacter", "assay": "Growth of strain on protamine-containing medium, ACB-R", "format": "cell-based, Acinetobacter calcoaceticus-baumannii complex", "method": "(§1) As in Example 1, a concentration of agar particles (BD Diagnostic, Sparks, Md., USA) in Mueller-Hinton broth medium (BD Diagnostic) was adjusted to 17 g/L or 5.1 g/L that is 30% of 17 g/L. To select a concentration of protamine, which can enhance diffusion of colistin from a disk without interfering with bacterial growth, while using the protamine at various concentrations, protamine (Sigma-Aldrich, St Louis, Mo., USA) was added to the medium at concentrations of 1 mg/ml, 700 μg/ml, 400 μg/ml, 300 μg/ml, 200 μg/ml, 150 μg/ml, 100 μg/ml, and 50 μg/ml. Each medium thus modified was solidified. Then, on a surface of each medium was evenly inoculated each of colistin-susceptible (S) or -resistant (R) Acinetobacter calcoaceticus-baumannii complex (ACB) strain, Pseudomonas aeruginosa ATCC27853 strain, and mcr-1-harboring Enterobacter aerogenes strain, and a colistin disk was placed thereon. Then, it was determined whether each strain was grown, and a diameter of a growth inhibition zone, which had been formed around the disk, was measured."}, "[3]": {"tested_on": "Colistin-susceptible Acinetobacter", "assay": "Growth of strain on protamine-containing medium, ACB-S", "format": "cell-based, Acinetobacter calcoaceticus-baumannii complex", "method": "as §1"}, "[4]": {"tested_on": "PAE ATCC 27853", "assay": "Growth of strain on protamine-containing medium, PAE", "format": "cell-based, Pseudomonas aeruginosa", "method": "as §1"}, "[5]": {"tested_on": "mcr-1-harboring Enterobacter aerogenes strain", "assay": "Growth of strain on protamine-containing medium, mcr-1", "format": "cell-based", "method": "as §1"}}, "note": "Structures can show the parent of a compound that is named as a salt."}
{"molecule": "N=C(N)N", "note": "[guanidine hydrochloride]", "values": [{"measurement": "growth of the strain", "setting": "[1]", "value": "not inhibited"}]}
{"molecule": "protamine", "values": [{"measurement": "Growth", "setting": "[2]; 30% agar, protamine 50 μg/ml", "value": "Grown"}, {"measurement": "Growth", "setting": "[2]; 30% agar, protamine 100 μg/ml", "value": "Grown"}, {"measurement": "Growth", "setting": "[2]; 30% agar, protamine 150 μg/ml", "value": "Grown"}, {"measurement": "Growth", "setting": "[2]; 100% agar, protamine 50 μg/ml", "value": "Grown"}, {"measurement": "Growth", "setting": "[2]; 100% agar, protamine 100 μg/ml", "value": "Grown"}, {"measurement": "Growth", "setting": "[2]; 100% agar, protamine 150 μg/ml", "value": "Grown"}, {"measurement": "Growth", "setting": "[2]; 100% agar, protamine 200 μg/ml", "value": "Grown"}, {"measurement": "Growth", "setting": "[2]; 100% agar, protamine 300 μg/ml", "value": "Grown"}, {"measurement": "Growth", "setting": "[2]; 100% agar, protamine 400 μg/ml", "value": "Grown"}, {"measurement": "Growth", "setting": "[3]; 30% agar, protamine 50 μg/ml", "value": "Grown"}, {"measurement": "Growth", "setting": "[3]; 30% agar, protamine 100 μg/ml", "value": "Grown"}, {"measurement": "Growth", "setting": "[3]; 30% agar, protamine 150 μg/ml", "value": "Grown"}, {"measurement": "Growth", "setting": "[3]; 100% agar, protamine 50 μg/ml", "value": "Grown"}, {"measurement": "Growth", "setting": "[3]; 100% agar, protamine 100 μg/ml", "value": "Grown"}, {"measurement": "Growth", "setting": "[3]; 100% agar, protamine 150 μg/ml", "value": "Grown"}, {"measurement": "Growth", "setting": "[3]; 100% agar, protamine 200 μg/ml", "value": "Grown"}, {"measurement": "Growth", "setting": "[3]; 100% agar, protamine 300 μg/ml", "value": "Grown"}, {"measurement": "Growth", "setting": "[3]; 100% agar, protamine 400 μg/ml", "value": "Grown"}, {"measurement": "Growth", "setting": "[3]; 100% agar, protamine 700 μg/ml", "value": "Grown"}, {"measurement": "Growth", "setting": "[4]; 30% agar, protamine 50 μg/ml", "value": "Grown"}, {"measurement": "Growth", "setting": "[4]; 30% agar, protamine 100 μg/ml", "value": "Grown"}, {"measurement": "Growth", "setting": "[4]; 30% agar, protamine 150 μg/ml", "value": "Grown"}, {"measurement": "Growth", "setting": "[4]; 30% agar, protamine 200 μg/ml", "value": "Grown"}, {"measurement": "Growth", "setting": "[4]; 100% agar, protamine 50 μg/ml", "value": "Grown"}, {"measurement": "Growth", "setting": "[4]; 100% agar, protamine 100 μg/ml", "value": "Grown"}, {"measurement": "Growth", "setting": "[4]; 100% agar, protamine 150 μg/ml", "value": "Grown"}, {"measurement": "Growth", "setting": "[4]; 100% agar, protamine 200 μg/ml", "value": "Grown"}, {"measurement": "Growth", "setting": "[4]; 100% agar, protamine 300 μg/ml", "value": "Grown"}, {"measurement": "Growth", "setting": "[4]; 100% agar, protamine 400 μg/ml", "value": "Grown"}, {"measurement": "Growth", "setting": "[5]; 30% agar, protamine 50 μg/ml", "value": "Grown"}, {"measurement": "Growth", "setting": "[5]; 30% agar, protamine 100 μg/ml", "value": "Grown"}, {"measurement": "Growth", "setting": "[5]; 30% agar, protamine 150 μg/ml", "value": "Grown"}, {"measurement": "Growth", "setting": "[5]; 30% agar, protamine 200 μg/ml", "value": "Grown"}, {"measurement": "Growth", "setting": "[5]; 100% agar, protamine 50 μg/ml", "value": "Grown"}, {"measurement": "Growth", "setting": "[5]; 100% agar, protamine 100 μg/ml", "value": "Grown"}, {"measurement": "Growth", "setting": "[5]; 100% agar, protamine 150 μg/ml", "value": "Grown"}, {"measurement": "Growth", "setting": "[5]; 100% agar, protamine 200 μg/ml", "value": "Grown"}, {"measurement": "Growth", "setting": "[5]; 100% agar, protamine 300 μg/ml", "value": "Grown"}, {"measurement": "Growth", "setting": "[5]; 100% agar, protamine 400 μg/ml", "value": "Grown"}, {"measurement": "Growth", "setting": "[5]; 100% agar, protamine 700 μg/ml", "value": "Grown"}]}
